Measured values as given in patent US8618111B2, “5-alkynyl-pyrimidines” (Boehringer Ingelheim International GmbH, priority 2010, dated 2013).

Tests used:
[1] = target: mTOR (Homo sapiens (Human), UniProt P42345); experiment: mTOR kinase activity assay (phosphorylation status of mTOR substrate 4E-BP1; TR-FRET); type: biochemical; settings: GFP-4E-BP1 substrate, 8 μM ATP
Experimental: mTOR Kinase Activity Assay
(Phosphorylation Status of mTOR Substrate 4E-BP1; TR-FRET)
The mTOR kinase TR-FRET assay utilizes a physiologically relevant protein substrate for mTOR (4E-BP1, labeled with an acceptor fluorophore (Green Fluorescent Protein) and paired with a corresponding Tb-labeled phospho-specific antibody.
The assay itself is divided into two phases: the reaction phase and the detection phase. In the reaction phase, all components required for the kinase reaction are added to the well, including the labeled protein substrate. The reaction is allowed to incubate for 60 minutes. After the reaction, EDTA is added to stop the kinase reaction, and terbium-labeled antibody is added to bind phosphorylated product. Because the terbium chelate is stable at the EDTA concentrations used to stop a kinase assay, the antibody and EDTA can be pre-mixed prior to addition to minimize pipetting steps. Binding of the terbium labeled antibody to the fluorophore-labeled phosphorylated product brings the terbium and GFP into proximity, resulting in an increase in TR-FRET. In the presence of an inhibitor, formation of phosphorylated product is reduced, and the TR-FRET value is decreased.
• GFP-4E-BP1 substrate; Invitrogen order no. PV4759 • Lanthascreen Tb-anti-p4E-BP1 (pThr46) Antibody Kit; Invitrogen order no. PV4758 • FRAP1 (mTOR) kinase; Invitrogen order no.
400 nM GFP-4E-BP1, 8 μM ATP, ˜150 ng/mL mTOR, 50 mM HEPES pH 7.5, 0.01% Polysorbate 20, 1 mM EGTA, 10 mM MnCl2, and variable amounts of test compounds.
Note: Thaw and keep mTOR, the substrate, ATP, and the antibody on ice prior to making working dilutions. Working dilutions of these components can be kept at room temperature for short periods of time the day of use. • 1. Add 2 ml of 5× Assay Buffer to 8 ml water to prepare 10 ml of 1× Assay Buffer, wherein the concentration of 1× Assay Buffer is 50 mM HEPES pH 7.5, 0.01% Polysorbate 20, 1 mM EGTA, and 10 mM MnCl2. • 2. Prepare Antibody/EDTA Solution by first adding 2.75 μl of Tb-anti p4E-BP1 Antibody to 2397 μl of LanthaScreen™ TR-FRET Dilution Buffer. Then, add 100 μl of 0.5 M EDTA. • 3. […] Then, add 1.6 μl of mTOR (0.45 mg/mL). • 4. Prepare ATP Solution by adding 3.2 μl of 10 mM ATP to 1997 μl of 1× Assay Buffer. Serial Dilution of Inhibitors (16 Point Curve)
Inhibitors are serially diluted in DMSO, then diluted to a 4× working concentration with 1× Assay Buffer. • 1. Dispense 40 μl of DMSO to two adjacent columns of a 96 well plate per compound (e.g. columns 1 and 2). • 2. Add 10 μl of inhibitor stock (10 mM) to the first well of the first column (A1) and mix. • 3. Remove 10 μl from A1 and transfer to the adjacent well in the next column (B1) and mix. • 4. Remove 10 μl from B1 and transfer to the next well in the first column (B2) and mix. • 5. […] Remove 4 μl of diluted compounds and add to 96 μl of 1× Assay Buffer in a 96-well plate making 4× compound dilutions. Kinase Reaction • 1. Add 2.5 μl of 4X compound dilutions to a 384-well plate. • 2. […] Preincubate for […] at RT (shaker). • 5. Add 5 μl of ATP Solution to all wells to start reactions. • 6. Shake the assay plate on a plate shaker for 30 seconds. • 7. Incubate the assay plate for one hour at room temperature (20-25° C.). Stop Step and Fluorescence Detection • 1. Add 10 μl of Antibody/EDTA Solution to each well in columns 1-9. • 2. Shake the assay plate on a plate shaker for 30 seconds. • 3. Incubate the assay plate for one hour at room temperature (20-25° C.). • 4. Measure the GFP (FRET) and terbium (reference) emission signals on a fluorescence plate reader (e.g. Perkin Elmer Envision). Data Analysis • 1. Calculate the emission ratio for each sample by dividing the GFP (FRET) signal by the terbium (reference) signal. • 2.

[2] = target: PI3Kalpha (Homo sapiens (Human), UniProt P42336); experiment: Inhibition of PI3Kalpha-induced PIP-2 phosphorylation (filter-binding assay); type: biochemical; settings: 33P-ATP
PI3Kalpha, sequence (P42336 whole entry, species assumed): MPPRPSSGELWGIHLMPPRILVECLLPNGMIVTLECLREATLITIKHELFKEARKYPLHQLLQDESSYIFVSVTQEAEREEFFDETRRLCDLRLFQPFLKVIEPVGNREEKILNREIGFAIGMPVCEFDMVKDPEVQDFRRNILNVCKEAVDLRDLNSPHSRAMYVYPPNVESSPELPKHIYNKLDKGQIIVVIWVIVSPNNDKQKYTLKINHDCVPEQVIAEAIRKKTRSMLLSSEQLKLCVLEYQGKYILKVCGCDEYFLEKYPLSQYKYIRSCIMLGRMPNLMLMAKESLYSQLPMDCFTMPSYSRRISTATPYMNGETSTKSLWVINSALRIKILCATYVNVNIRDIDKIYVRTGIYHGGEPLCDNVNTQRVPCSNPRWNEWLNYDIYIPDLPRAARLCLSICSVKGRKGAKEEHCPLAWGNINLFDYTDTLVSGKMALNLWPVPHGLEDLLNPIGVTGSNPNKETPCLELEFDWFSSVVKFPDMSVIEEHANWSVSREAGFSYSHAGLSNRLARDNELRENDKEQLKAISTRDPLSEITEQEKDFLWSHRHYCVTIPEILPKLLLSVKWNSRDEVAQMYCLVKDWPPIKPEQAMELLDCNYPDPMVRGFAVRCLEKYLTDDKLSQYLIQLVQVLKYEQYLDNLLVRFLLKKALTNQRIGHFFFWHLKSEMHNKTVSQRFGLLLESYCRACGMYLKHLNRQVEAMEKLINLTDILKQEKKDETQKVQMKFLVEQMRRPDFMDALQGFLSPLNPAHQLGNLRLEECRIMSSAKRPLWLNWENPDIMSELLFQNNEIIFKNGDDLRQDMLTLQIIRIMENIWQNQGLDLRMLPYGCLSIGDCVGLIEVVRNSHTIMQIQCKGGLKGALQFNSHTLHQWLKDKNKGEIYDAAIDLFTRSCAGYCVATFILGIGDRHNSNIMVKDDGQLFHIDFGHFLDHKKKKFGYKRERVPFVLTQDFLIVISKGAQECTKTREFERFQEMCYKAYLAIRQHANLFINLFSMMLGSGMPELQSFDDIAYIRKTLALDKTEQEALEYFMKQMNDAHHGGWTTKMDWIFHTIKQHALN
PI3Kalpha, sequence (P27986 whole entry partner, species assumed): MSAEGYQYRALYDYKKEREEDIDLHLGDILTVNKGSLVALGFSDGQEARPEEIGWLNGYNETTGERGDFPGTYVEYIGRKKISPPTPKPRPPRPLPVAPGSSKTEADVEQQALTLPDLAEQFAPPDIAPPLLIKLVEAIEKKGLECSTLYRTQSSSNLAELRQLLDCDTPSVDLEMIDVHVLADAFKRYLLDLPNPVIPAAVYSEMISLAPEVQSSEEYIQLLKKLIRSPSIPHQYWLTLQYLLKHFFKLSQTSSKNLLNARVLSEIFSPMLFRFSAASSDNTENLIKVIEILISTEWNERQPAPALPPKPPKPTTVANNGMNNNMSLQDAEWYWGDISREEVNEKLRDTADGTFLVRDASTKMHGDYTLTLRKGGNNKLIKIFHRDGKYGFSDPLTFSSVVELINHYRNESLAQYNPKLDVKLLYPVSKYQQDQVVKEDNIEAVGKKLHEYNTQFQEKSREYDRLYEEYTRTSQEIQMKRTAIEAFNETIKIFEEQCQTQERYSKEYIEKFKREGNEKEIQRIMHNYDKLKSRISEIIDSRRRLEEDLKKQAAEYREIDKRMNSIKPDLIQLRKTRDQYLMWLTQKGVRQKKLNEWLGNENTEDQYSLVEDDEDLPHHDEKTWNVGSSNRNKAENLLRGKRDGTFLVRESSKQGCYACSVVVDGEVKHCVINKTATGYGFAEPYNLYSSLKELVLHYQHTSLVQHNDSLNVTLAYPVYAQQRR
Experimental: Inhibition of PI3Kalpha-Induced PIP-2 Phosphorylation
Method Type: Filter-Binding-Assay
Aliquoted in desired amounts and stored at −80° C. Final assay concentration 25 ng/well.

[3] = test system: BT474; experiment: BT474 cell assay (EC50); type: cell-based; settings: Homo sapiens, BT-474; BT474 cells
[4] = test system: PC3 (human prostate carcinoma cell line) cells; experiment: PC3 proliferation test; type: cell-based; settings: PC-3, 72 h, 3 days incubation, DNA dye fluorescence
Experimental: The test is based on measurement of cellular DNA content via fluorescent dye binding. Because cellular DNA content is highly regulated, it is closely proportional to cell number. The extent of proliferation is determined by comparing cell counts for samples treated with drugs with untreated controls.
PC3 (human prostate carcinoma cell line) cells are sown in microtitre plates and incubated overnight in culture medium at 37° C. and 5% CO2. The test substances are diluted stepwise and added to the cells such that the total volume is 200 μL/well. Cells to which diluent, but not substance, is added serve as controls.

mTOR, sequence (P42345 1360-2549): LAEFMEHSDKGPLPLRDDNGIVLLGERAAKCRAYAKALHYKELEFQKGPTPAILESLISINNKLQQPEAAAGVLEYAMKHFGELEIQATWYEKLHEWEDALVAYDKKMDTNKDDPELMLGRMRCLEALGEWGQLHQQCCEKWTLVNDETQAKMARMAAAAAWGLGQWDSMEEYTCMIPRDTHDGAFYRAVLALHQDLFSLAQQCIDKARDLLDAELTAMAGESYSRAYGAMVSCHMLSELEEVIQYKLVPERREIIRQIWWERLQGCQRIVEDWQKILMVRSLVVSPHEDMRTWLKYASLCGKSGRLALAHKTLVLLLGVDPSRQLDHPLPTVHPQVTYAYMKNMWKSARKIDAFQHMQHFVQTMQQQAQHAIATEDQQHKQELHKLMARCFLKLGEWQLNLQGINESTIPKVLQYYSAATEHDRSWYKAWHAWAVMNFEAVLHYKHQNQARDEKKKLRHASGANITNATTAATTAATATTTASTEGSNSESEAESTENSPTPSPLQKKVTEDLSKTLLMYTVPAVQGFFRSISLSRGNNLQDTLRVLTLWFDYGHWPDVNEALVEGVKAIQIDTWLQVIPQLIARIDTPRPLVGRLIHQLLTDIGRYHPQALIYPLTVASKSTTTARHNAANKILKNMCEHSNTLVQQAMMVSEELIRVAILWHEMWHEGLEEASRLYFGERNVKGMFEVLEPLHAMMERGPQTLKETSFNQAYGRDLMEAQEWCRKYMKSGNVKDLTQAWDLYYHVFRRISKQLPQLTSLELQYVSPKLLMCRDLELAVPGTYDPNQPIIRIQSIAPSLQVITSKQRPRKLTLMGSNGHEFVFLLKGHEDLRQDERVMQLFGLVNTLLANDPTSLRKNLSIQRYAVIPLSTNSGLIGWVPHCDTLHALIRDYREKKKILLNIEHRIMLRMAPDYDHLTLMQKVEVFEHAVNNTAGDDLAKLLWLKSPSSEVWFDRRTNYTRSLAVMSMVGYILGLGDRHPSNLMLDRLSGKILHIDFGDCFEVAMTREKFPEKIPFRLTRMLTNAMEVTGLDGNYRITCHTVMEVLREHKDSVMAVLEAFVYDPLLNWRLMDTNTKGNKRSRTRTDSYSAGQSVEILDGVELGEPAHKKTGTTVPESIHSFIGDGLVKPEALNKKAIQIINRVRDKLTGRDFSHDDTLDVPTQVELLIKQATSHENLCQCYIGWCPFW

| SMILES | IC50 [1] | IC50 PI3Ka [2] | EC50 [3] | EC50 [4] |
| --- | --- | --- | --- | --- |
| CCc1ncnc(N2CCN(c3ccccn3)CC2)c1C#Cc1ccc(N)nc1 [Example H-21] | 33 nM | 42 nM | 68 nM |  |
| CCc1ncnc(N2CCN(c3ccncc3)CC2)c1C#Cc1ccc(N)nc1 [Example H-22] | 49 nM | 229 nM | 194 nM |  |
| CCc1ncnc(N2CCC3(CCN(C(=O)NC)CC3)CC2)c1C#Cc1ccc(N)nc1 [Example G-13] | 35 nM | 50 nM |  | 53 nM |
| Cc1ncnc(N2CCOCC2)c1C#Cc1ccc(N)nc1 [Example B-4] | 38 nM | 37 nM |  | 319 nM |
| CCc1ncnc(N2CCC(C)(O)CC2)c1C#Cc1ccc(C)nc1 [Example B-73] | 30 nM | 84 nM |  | 160 nM |
| Cc1ncnc(N2CC[S+]([O-])CC2)c1C#Cc1ccc(N)nc1 [Example B-3] | 83 nM | 199 nM |  | 501 nM |
| Cc1ncnc(N2CCC(CC(=O)N3CCOCC3)CC2)c1C#Cc1ccc(N)nc1 [Example E-6] | 59 nM | 83 nM |  | 358 nM |
| COCCNC(=O)CC1CCN(c2ncnc(C)c2C#Cc2ccc(N)nc2)CC1 [Example E-4] | 144 nM | 66 nM |  | 300 nM |
| CCc1ncnc(N2CCC(O)C(C)C2)c1C#Cc1ccc(N)nc1 (stereo not drawn) [Example B-64] | 10 nM | 55 nM |  | 53 nM |
| CCc1ncnc(N2CCN(C(=O)CC#N)CC2)c1C#Cc1ccc(N)nc1 [Example G-3] | 91 nM | 60 nM |  | 550 nM |
| CCc1ncnc(N2CC[S+]([O-])CC2)c1C#Cc1ccc(N)nc1 [Example B-52] | 28 nM | 104 nM |  | 180 nM |
| CCc1ncnc(N2CCC(O)(C(F)(F)F)CC2)c1C#Cc1ccc(N)nc1 [Example B-19] | 1 nM | 53 nM |  | 3 nM |
| CCc1ncnc(N2CCN(CC(C)(C)O)CC2)c1C#Cc1ccc(N)nc1 [Example B-81] | 7 nM | 143 nM |  | 71 nM |
| CCc1ncnc(N2CCN(C3CC3)CC2)c1C#Cc1ccc(N)nc1 [Example B-51] | 43 nM | 86 nM |  | 129 nM |
| CCc1ncnc(N2CCC(C)(OC)CC2)c1C#Cc1ccc(N)nc1 [Example B-59] | 5 nM | 53 nM |  | 23 nM |
| CCc1ncnc(N2CCC3(CC2)OCCCO3)c1C#Cc1ccc(N)nc1 [Example B-61] | 4 nM | 43 nM |  | 33 nM |
| CCNC(=O)CC1CCN(c2ncnc(C)c2C#Cc2ccc(N)nc2)CC1 [Example E-5] | 58 nM | 38 nM |  | 171 nM |
| CCc1ncnc(N2CCC(C(C)(C)O)CC2)c1C#Cc1ccc(N)nc1 [Example B-11] | 7 nM | 31 nM |  | 60 nM |
| CCc1ncnc(N2CCCC(CO)C2)c1C#Cc1ccc(C)nc1 (stereo not drawn) [Example B-71] | 108 nM | 90 nM |  | 388 nM |
| CCc1ncnc(N2CCN(C(C)=O)CC2)c1C#Cc1ccc(N)nc1 [Example B-40] | 32 nM | 62 nM |  | 187 nM |
| CCc1ncnc(N2CCOCC2)c1C#Cc1ccc(N)nc1 [Example B-57] | 93 nM | 46 nM |  | 119 nM |

| SMILES | IC50 [1] | IC50 PI3Ka [2] | EC50 [3] | EC50 [4] |
| --- | --- | --- | --- | --- |
| Cc1ncnc(N2CCC(CCO)CC2)c1C#Cc1ccc(N)nc1 [Example B-30] | 9 nM | 14 nM |  | 49 nM |
| CCc1ncnc(N2CCC(=O)CC2)c1C#Cc1ccc(N)nc1 [Example B-62] | 28 nM | 109 nM |  | 105 nM |
| Cc1ncnc(N2CCN(C(=O)c3ccno3)CC2)c1C#Cc1ccc(N)nc1 [Example G-9] | 55 nM | 39 nM |  | 310 nM |
| CCc1ncnc(N2CCCC(NC(C)=O)C2)c1C#Cc1ccc(N)nc1 (stereo not drawn) [Example B-20] | 16 nM | 167 nM |  | 158 nM |
| Cc1ncnc(N2CCC(O)(c3ccccc3)CC2)c1C#Cc1ccc(N)nc1 [Example B-27] | 23 nM | 22 nM |  | 56 nM |
| CCCCCC(=O)NCC1CCN(c2ncnc(C)c2C#Cc2ccc(N)nc2)CC1 [Example F-2] | 31 nM | 23 nM |  | 344 nM |
| CCc1ncnc(N2CCC(O)(C(C)C)CC2)c1C#Cc1ccc(C)nc1 [Example B-35] | 23 nM | 172 nM |  | 168 nM |
| CC(=O)NC1CCCN(c2ncnc(C)c2C#Cc2ccc(N)nc2)C1 (stereo not drawn) [Example B-24] | 46 nM | 158 nM |  | 352 nM |
| CCc1ncnc(N2CCC3(CC2)OCCO3)c1C#Cc1ccc(N)nc1 [Example B-22] | 4 nM | 57 nM |  | 32 nM |
| CC(=O)N1CCCN(c2ncnc(C)c2C#Cc2ccc(N)nc2)CC1 [Example B-7] | 94 nM | 348 nM |  | 722 nM |
| CCc1ncnc(N2CCC3(CC2)CC(=O)NC(=O)C3)c1C#Cc1ccc(N)nc1 [Example B-82] | 5 nM | 38 nM |  | 77 nM |
| Cc1ncnc(N2CCN(C3CC3)CC2)c1C#Cc1ccc(N)nc1 [Example B-5] | 10 nM | 58 nM |  | 118 nM |
| CCc1ncnc(N2CCC(C=C(C)C)CC2)c1C#Cc1ccc(N)nc1 [Example B-15] | 64 nM | 622 nM |  | 202 nM |
| CCc1ncnc(N2CCC(O)(C(C)C)CC2)c1C#Cc1ccc(N)nc1 [Example B-63] | 0.61 nM | 15 nM |  | 8 nM |
| CCc1ncnc(N2CCC(COC)CC2)c1C#Cc1ccc(N)nc1 [Example B-39] | 19 nM | 87 nM |  | 50 nM |
| CCc1ncnc(N2CCC(O)CC2)c1C#Cc1ccc(N)nc1 [Example B-48] | 14 nM | 99 nM |  | 141 nM |
| Cc1ncnc(N2CCC3(CC2)OCCCO3)c1C#Cc1ccc(N)nc1 [Example B-60] | 6 nM | 14 nM |  | 75 nM |
| Cc1ncnc(N2CCC3(CC2)OCCO3)c1C#Cc1ccc(N)nc1 [Example B-26] | 10 nM | 60 nM |  | 27 nM |
| CCc1ncnc(N2CCN(C(=O)OC)CC2)c1C#Cc1ccc(N)nc1 [Example G-6] | 101 nM | 52 nM |  | 106 nM |
| CC(=O)NC1CCN(c2ncnc(C)c2C#Cc2ccc(N)nc2)CC1 [Example B-25] | 42 nM | 78 nM |  | 267 nM |
| CCc1ncnc(N2CCC(O)CC2)c1C#Cc1ccc(NC)nc1 [Example B-87] | 20 nM | 76 nM |  | 104 nM |
